Converted amounts (≈) assume the structure as drawn.
Key:
Escherichia coli 026B6 = test: In vitro MIC, standard tube dilution; type: cell-based
Source text: (§1) The in vitro minimum inhibitory concentration (MIC) of FCE 24366, FCE 24367 and daunorubicin, determined for some microorganism using the standard tube dilution procedure, are reported in Table 4.

[1] = test system: Escherichia coli ATCC 11303; test: In vitro MIC, standard tube dilution; type: cell-based; details: ATCC11303
Source text: as §1

[2] = test system: Klebeiella pneumoniae ATCC 10031; test: In vitro MIC, standard tube dilution; type: cell-based
Source text: as §1

[3] = test system: Proteus morganii ATCC 25830; test: In vitro MIC, standard tube dilution; type: cell-based; details: Morganella morganii, ATCC25830
Source text: as §1

Sarcina lutea ATCC 9341 = test: In vitro MIC, standard tube dilution; type: cell-based; details: Micrococcus luteus, ATCC9341
Source text: as §1

[4] = test system: Staphylococcus aureus 153; test: In vitro MIC, standard tube dilution; type: cell-based
Source text: as §1

[5] = test system: Staphylococcus aureus 209P; test: In vitro MIC, standard tube dilution; type: cell-based
Source text: as §1

[6] = test system: Streptococcus faecalis ATCC 8043; test: In vitro MIC, standard tube dilution; type: cell-based; details: Enterococcus faecalis, ATCC8043
Source text: as §1

[7] = test system: Streptococcus pyogenes ATCC 12384; test: In vitro MIC, standard tube dilution; type: cell-based; details: ATCC12384
Source text: as §1

HeLa cells = test: In vitro cytotoxicity on cultured HeLa cells; type: cell-based; details: for IC50: Homo sapiens, exposed for 24 hr then plated, read-out: ID50 (the source's name)
Source text: (§2) The cytotoxic activity of the new anthracyclines, FCE 24366 and FCE 24367 have been tested in vitro on cultured HeLa cells, and P388 leukemia cells sensitive (P 388/S) or resistant (P 388/R) to doxorubicin.
^(a) Cells are exposed to the drugs for 24 hr then plated

P388/S leukemia cells = test: In vitro cytotoxicity on P388 leukemia cells sensitive to doxorubicin; type: cell-based; details: for IC50: Mus musculus, exposed for 48 hr then plated, read-out: ID50 (the source's name)
Source text: as §2
(§3) ^(b) Cells are exposed to the drugs for 48 hr then plated

P388/R leukemia cells = test: In vitro cytotoxicity on P388 leukemia cells resistant to doxorubicin; type: cell-based; details: for IC50: Mus musculus, exposed for 48 hr then plated, read-out: ID50 (the source's name); for activity on P 388/R cell line: cross-resistant to most anthracyclines
Source text: as §2, §3

P388 ascitic leukemia = test: In vivo activity against P388 ascitic leukemia in mice; details: for Toxic deaths: macroscopic autopic findings; for MST (T/C %): median survival time, % of untreated controls; for in vivo activity compared with daunorubicin: P388 ascitic leukemia in mice, at dosage levels several times lower
Experimental: ^(a) Mice were treated i.p. on day 1 after tumor cell inoculation.
^(b) Injected as 1:9 Tween 80:water suspension.
(§4) ^(c) Median survival time expressed as percentage of untreated
^(d) Evaluated on the basis of macroscopic autopic findings.

Gross leukemia = test: In vivo activity against Gross leukemia in mice; details: for Toxic deaths: macroscopic autoptic findings; for MST (T/C %): median survival time, % of untreated controls
Experimental: ^(a) Mice were treated i.v. on day 1 after tumor cell i.v.
^(b) Injected as 1:9 Tween 80:water suspension
as §4
^(d) Evaluated on the basis of macroscopic autoptic findings.

Solubility = type: physicochemical
[8] = Stability in acidic media; type: physicochemical
[9] = acetone, dioxane, N,N-dimethylformamide, N,N-dimethylsulfoxide
[10] = chloroform, dichloromethane, ethyl acetate, lower alcohols
[11] = ethyl ether, n-hexane, petroleum ether and water

SMILES	MIC (Escherichia coli 026B6)	MIC [1]	MIC [2]	MIC [3]	MIC (Sarcina lutea ATCC 9341)	MIC [4]	MIC [5]	MIC [6]	MIC [7]	IC50 (HeLa cells)	IC50 (P388/S leukemia cells)	IC50 (P388/R leukemia cells)	cytotoxic dosage level compared with daunorubicin (HeLa cells)	cytotoxic dosage level compared with daunorubicin (P388/S leukemia cells)	activity on P 388/R cell line (P388/R leukemia cells)	in vivo activity compared with daunorubicin (P388 ascitic leukemia)	solubility (Solubility; [9])	solubility (Solubility; [10])	solubility (Solubility; [11])	stability [8]	other results
COc1cccc2c1C(=O)c1c(O)c3c(c(O)c1C2=O)C[C@@](O)(C(C)=O)C[C@@H]3O[C@H]1C[C@H](N)[C@H](O)[C@H](C)O1 [Daunorubicin, daunorubicin]	6.25 µg/mL (≈ 11.8 µM)	3.12 µg/mL (≈ 5.91 µM)	> 100 µg/mL	> 100 µg/mL	1.56 µg/mL (≈ 2.96 µM)	25 µg/mL (≈ 47.4 µM)	6.25 µg/mL (≈ 11.8 µM)	> 100 µg/mL	3.12 µg/mL (≈ 5.91 µM)	19 ng/mL (≈ 0.036 µM)	9.5 ng/mL (≈ 0.018 µM)	0.75 µg/mL (≈ 1.42 µM)									Toxic deaths (P388 ascitic leukemia; 2.9 mg/Kg i.p. on day 1): 0/10; MST (T/C %) (P388 ascitic leukemia; 2.9 mg/Kg i.p. on day 1): 160%; Toxic deaths (P388 ascitic leukemia; 4.4 mg/Kg i.p. on day 1): 7/10; MST (T/C %) (P388 ascitic leukemia; 4.4 mg/Kg i.p. on day 1): 150%; Toxic deaths (Gross leukemia; 10 mg/Kg i.v. on day 1): 0/9; MST (T/C %) (Gross leukemia; 10 mg/Kg i.v. on day 1): 183%; Toxic deaths (Gross leukemia; 15 mg/Kg i.v. on day 1): 0/9; MST (T/C %) (Gross leukemia; 15 mg/Kg i.v. on day 1): 217%; Toxic deaths (Gross leukemia; 22.5 mg/Kg i.v. on day 1): 9/9; MST (T/C %) (Gross leukemia; 22.5 mg/Kg i.v. on day 1): 83%
COc1cccc2c1C(=O)c1c(O)c3c(c(O)c1C2=O)C[C@@](O)(C(C)=O)C[C@@H]3O[C@H]1C[C@@H]2NC(C3C(=O)NC(=S)NC3=O)C(C)OC(CC(C)O)O[C@@H]2[C@H](C)O1 (some centres unmarked) [FCE 24367]	12.5 µg/mL (≈ 15.7 µM)	3.12 µg/mL (≈ 3.91 µM)	25 µg/mL (≈ 31.3 µM)	100 µg/mL (≈ 125 µM)	0.78 µg/mL (≈ 0.978 µM)	6.25 µg/mL (≈ 7.83 µM)	6.25 µg/mL (≈ 7.83 µM)	100 µg/mL (≈ 125 µM)	6.25 µg/mL (≈ 7.83 µM)	0.7 ng/mL (≈ 0.000877 µM)	0.003 ng/mL (≈ 3.76e-06 µM)	0.0038 µg/mL (≈ 0.00476 µM)	several times lower than those of daunorubicin	several times lower than those of daunorubicin	high activity	as active as daunorubicin	soluble	slightly soluble	barely soluble or insoluble	unstable	Toxic deaths (P388 ascitic leukemia; 0.3 mg/Kg i.p. on day 1): 0/10; MST (T/C %) (P388 ascitic leukemia; 0.3 mg/Kg i.p. on day 1): 145%; Toxic deaths (P388 ascitic leukemia; 0.45 mg/Kg i.p. on day 1): 1/10; MST (T/C %) (P388 ascitic leukemia; 0.45 mg/Kg i.p. on day 1): 150%; Toxic deaths (P388 ascitic leukemia; 0.68 mg/Kg i.p. on day 1): 1/10; MST (T/C %) (P388 ascitic leukemia; 0.68 mg/Kg i.p. on day 1): 155%
COc1cccc2c1C(=O)c1c(O)c3c(c(O)c1C2=O)C[C@@](O)(C(C)=O)C[C@@H]3O[C@H]1C[C@@H]2NC(C3C(=O)N(C)C(=O)N(C)C3=O)C(C)OC(CC(C)O)O[C@@H]2[C@H](C)O1 (some centres unmarked) [FCE 24366]	1.56 µg/mL (≈ 1.93 µM)	0.39 µg/mL (≈ 0.482 µM)	0.78 µg/mL (≈ 0.963 µM)	12.5 µg/mL (≈ 15.4 µM)	0.19 µg/mL (≈ 0.235 µM)	0.78 µg/mL (≈ 0.963 µM)	0.78 µg/mL (≈ 0.963 µM)	12.5 µg/mL (≈ 15.4 µM)	3.12 µg/mL (≈ 3.85 µM)	0.09 ng/mL (≈ 0.000111 µM)	0.036 ng/mL (≈ 4.45e-05 µM)	0.0012 µg/mL (≈ 0.00148 µM)	several times lower than those of daunorubicin	several times lower than those of daunorubicin	high activity	as active as daunorubicin	soluble	slightly soluble	barely soluble or insoluble	unstable	Toxic deaths (P388 ascitic leukemia; 0.012 mg/Kg i.p. on day 1): 0/10; MST (T/C %) (P388 ascitic leukemia; 0.012 mg/Kg i.p. on day 1): 130%; Toxic deaths (P388 ascitic leukemia; 0.025 mg/Kg i.p. on day 1): 0/10; MST (T/C %) (P388 ascitic leukemia; 0.025 mg/Kg i.p. on day 1): 135%; Toxic deaths (P388 ascitic leukemia; 0.05 mg/Kg i.p. on day 1): 0/10; MST (T/C %) (P388 ascitic leukemia; 0.05 mg/Kg i.p. on day 1): 150%; Toxic deaths (P388 ascitic leukemia; 0.1 mg/Kg i.p. on day 1): 1/10; MST (T/C %) (P388 ascitic leukemia; 0.1 mg/Kg i.p. on day 1): 165%; Toxic deaths (Gross leukemia; 0.13 mg/Kg i.v. on day 1): 0/9; MST (T/C %) (Gross leukemia; 0.13 mg/Kg i.v. on day 1): 117%; Toxic deaths (Gross leukemia; 0.20 mg/Kg i.v. on day 1): 0/8; MST (T/C %) (Gross leukemia; 0.20 mg/Kg i.v. on day 1): 192%; Toxic deaths (Gross leukemia; 0.30 mg/Kg i.v. on day 1): 2/9; MST (T/C %) (Gross leukemia; 0.30 mg/Kg i.v. on day 1): 150%; activity against Gross leukemia compared with daunorubicin (Gross leukemia; Gross leukemia in mice): activity comparable with that of daunorubicin at remarkably lower dosages

Reference: patent US4942155A, “Biosynthetic anthracyclines related to daunorubicin” (Farmitalia Carlo Erba S.p.A., priority 1986, dated 1990)
